Data reported in patent publication US20240423973A1, “COMPOUNDS, PHARMACEUTICAL COMPOSITIONS, AND METHODS FOR THE TREATMENT, PREVENTION, OR MANAGEMENT OF HYPERPROLIFERATIVE DISORDERS” (VINCERX PHARMA GMBH, priority 2021, published 2024).
*1 amine or outer side, *2 acyl side, *3 side chain or, on linkers, in order; H or OH if unused. Where a SMILES comes first, the peptide text is derived from it. Bridges are numbered along the chain shown (N, C = ends). Roman numbers before positions name the chains, in order. [ ]: non-standard residue; d: D form. The star is where a group is joined. X1 = CCCNC(=O)Nc1cccc(S(=O)(=O)Nc2cccc([C@@H](CC(=O)O)NC(=O)Nc3ccc(N*)cc3)c2)c1; Camptothecin(7-Et) = CCc1c2c(nc3ccccc13)-c1cc3c(c(=O)n1C2)COC(=O)[C@@]3(CC)O*; Glutaryl = O=C(CCCC(=O)[*:2])[*:1]; PEG3 = NCCOCCOCCOCCC(=O)O; CO = O=C([*:1])[*:2]; Sar = CNCC(=O)O

What was measured:
[1] = Pharmacokinetics in rat after intravenous administration; format: in vivo; conditions: male rats, intravenous 0.5 mg/kg bolus, plasma, non-compartmental analysis; for Vd: read-out: Vss
Description: Male rats (n=3) were given an intravenous 0.5 mg/kg bolus dose of test article dissolved in plasma with 1% DMSO and 1% ethanol (Ex A3 only). Serial blood samples were collected up to 24 hours post-dose. Plasma was harvested from blood samples and stored frozen until sample analysis. Test article plasma concentrations were analyzed by LC/MS/MS.

SUM149 = assay: Cytotoxicity in vitro in the presence and absence of elastase (MTT assay); format: cell-based; conditions: SUM149 cells, 72 h
Description: (§1) Cultivation of cells was performed according to standard procedures with the media recommended by the provider. The cells, in a total volume of 100 μL, were seeded in a 96-well plate with a white bottom (#3610). After a 24 h incubation period at 37° C. and 5% CO2, the medium was exchanged by adding 90 μL fresh medium. The treatment started by adding the test compound in 10 μL of culture medium to the cells in triplicates. Concentrations ranging from 10^−5 M to 10^−13 M were chosen. Two identically treated sets of samples were prepared. One set was treated with the test compound alone, whereas to the second set the compound and 10 nM elastase was added followed by a 72 h incubation period at 37° C. and 5% CO2. The proliferation was detected using the MTT assay (ATCC). At the end of the incubation period the MTT reagent was added to all samples for 4h. Lysis of the cells followed by addition of the detergent was done overnight. The formed dye was detected at 570 nm. The proliferation of untreated but otherwise identically handled cells was define as the […].

NCI H292 = assay: as above; format: cell-based, human; conditions: NCI H292 cells, 72 h
Description: as §1

786-O = assay: as above; format: cell-based, human; conditions: 786-O cells, 72 h
Description: as §1

HT29 = assay: as above; format: cell-based, human; conditions: HT29 cells, 72 h
Description: as §1

CCCNC(=O)Nc1cccc(S(=O)(=O)Nc2cccc([C@@H](CC(=O)O)NC(=O)Nc3ccc(NC(=O)NCCOCCOCCOCCC(=O)NCCCC[C@H](NC(=O)CCOCCOCCOCCNC(=O)Nc4ccc(NC(=O)N[C@H](CC(=O)O)c5cccc(NS(=O)(=O)c6cccc(NC(=O)NCCC)c6)c5)cc4)C(=O)NCCOCCOCCOCCC(=O)N[C@@H](CC(=O)O)C(=O)N4CCC[C@H]4C(=O)N[C@H](C(=O)O[C@]4(CC)C(=O)OCc5c4cc4n(c5=O)Cc5c-4nc4ccccc4c5CC)C(C)C)cc3)c2)c1 [Compound A3]
AUC [1]: 50000 to 150000 ng·h/mL | clearance [1]: 0.05 to 0.5 mL/min/kg | half-life [1]: 10 to 15 h | Vd [1]: 0.01 to 0.1 L/kg

CCCNC(=O)Nc1cccc(S(=O)(=O)Nc2cccc([C@@H](CC(=O)O)NC(=O)Nc3ccc(NC(=O)NCCN(C)CCN(C)CCN(C)CC(=O)N[C@@H](CC(N)=O)C(=O)N4CCC[C@H]4C(=O)N[C@H](C(=O)O[C@]4(CC)C(=O)OCc5c4cc4n(c5=O)Cc5c-4nc4ccccc4c5CC)C(C)C)cc3)c2)c1.Cl.Cl.Cl [Compound B4b, (4S)-4,11-diethyl-3,14-dioxo-3,4,12,14-tetrahydro-1H-pyrano[3′,4′:6,7]indolizino[1,2-b]quinolin-4-yl N^2-{13-[4-({[(1R)-2-carboxy-1-{3-[({3-[(propylcarbamoyl)amino]phenyl}sulfonyl)amino]phenyl}ethyl]carbamoyl}amino)anilino]-3,6,9-trimethyl-13-oxo-12-aza-3,6,9-triazoniatridecan-1-oyl}-L-asparaginyl-L-prolyl-L-valinate trichloride]
IC50 (SUM149; compound alone (no elastase)): 10 to 100 nM | IC50 (SUM149; with 10 nM elastase): 0.01 to 0.1 nM | AUC [1]: 1000 to 10000 ng·h/mL | clearance [1]: 0.5 to 5 mL/min/kg | half-life [1]: 5 to 10 h | Vd [1]: > 0.1 L/kg | IC50 (NCI H292; compound alone (no elastase)): 10 to 100 nM | IC50 (NCI H292; with 10 nM elastase): 0.1 to 1 nM | IC50 (786-O; compound alone (no elastase)): 10 to 100 nM | IC50 (786-O; with 10 nM elastase): 0.1 to 1 nM | IC50 (HT29; compound alone (no elastase)): 10 to 100 nM | IC50 (HT29; with 10 nM elastase): 0.1 to 1 nM

CCCNC(=O)Nc1cccc(S(=O)(=O)Nc2cccc([C@@H](CC(=O)O)NC(=O)Nc3ccc(NC(=O)NCCOCCOCCOCCC(=O)N[C@@H](CC(=O)OCCCCN(C)C)C(=O)N4CCC[C@H]4C(=O)N[C@H](C(=O)O[C@]4(CC)C(=O)OCc5c4cc4n(c5=O)Cc5c-4nc4ccccc4c5CC)C(C)C)cc3)c2)c1 [Compound C6, sodium (3R)-3-[({4-[({(10S)-10-[(2S)-2-{[(2S)-1-{[(4S)-4,11-diethyl-3,14-dioxo-3,4,12,14-tetrahydro-1H-pyrano[3′,4′:6,7]indolizino[1,2-b]quinolin-4-yl]oxy}-3-methyl-1-oxobutan-2-yl]carbamoyl}pyrrolidine-1-carbonyl]-2-methyl-8,12-dioxo-7,15,18,21-tetraoxa-2,11-diazatricosan-23-yl}carbamoyl)amino]phenyl}carbamoyl)amino]-3-[3-({3-[(propylcarbamoyl)amino]benzene-1-sulfonyl}amino)phenyl]propanoate]
IC50 (SUM149; compound alone (no elastase)): 10 to 100 nM | IC50 (SUM149; with 10 nM elastase): 0.01 to 0.1 nM | IC50 (NCI H292; compound alone (no elastase)): 10 to 100 nM | IC50 (NCI H292; with 10 nM elastase): 0.1 to 1 nM | IC50 (786-O; compound alone (no elastase)): 10 to 100 nM | IC50 (786-O; with 10 nM elastase): 0.1 to 1 nM | IC50 (HT29; compound alone (no elastase)): 10 to 100 nM | IC50 (HT29; with 10 nM elastase): 0.1 to 1 nM

CCCNC(=O)Nc1cccc(S(=O)(=O)Nc2cccc([C@@H](CC(=O)OCCCCN)NC(=O)Nc3ccc(NC(=O)NCCOCCOCCOCCC(=O)N[C@@H](CC(=O)OCCCCN)C(=O)N4CCC[C@H]4C(=O)N[C@H](C(=O)O[C@]4(CC)C(=O)OCc5c4cc4n(c5=O)Cc5c-4nc4ccccc4c5CC)C(C)C)cc3)c2)c1 [Compound C7]
IC50 (SUM149; compound alone (no elastase)): 1.1 to 10 nM | IC50 (SUM149; with 10 nM elastase): < 0.01 nM | IC50 (NCI H292; compound alone (no elastase)): 1.1 to 10 nM | IC50 (NCI H292; with 10 nM elastase): 0.01 to 0.1 nM | IC50 (786-O; compound alone (no elastase)): 10 to 100 nM | IC50 (786-O; with 10 nM elastase): 0.1 to 1 nM | IC50 (HT29; compound alone (no elastase)): > 100 nM | IC50 (HT29; with 10 nM elastase): 0.1 to 1 nM

CCCNC(=O)Nc1cccc(S(=O)(=O)Nc2cccc([C@@H](CC(=O)OCCCN)NC(=O)Nc3ccc(NC(=O)NCCOCCOCCOCCC(=O)N[C@@H](CC(=O)OCCCN)C(=O)N4CCC[C@H]4C(=O)N[C@H](C(=O)O[C@]4(CC)C(=O)OCc5c4cc4n(c5=O)Cc5c-4nc4ccccc4c5CC)C(C)C)cc3)c2)c1 [Compound C8]
IC50 (SUM149; compound alone (no elastase)): 1.1 to 10 nM | IC50 (SUM149; with 10 nM elastase): 0.1 to 1 nM | IC50 (NCI H292; compound alone (no elastase)): 1.1 to 10 nM | IC50 (NCI H292; with 10 nM elastase): 0.1 to 1 nM | IC50 (786-O; compound alone (no elastase)): 10 to 100 nM | IC50 (786-O; with 10 nM elastase): 0.1 to 1 nM | IC50 (HT29; compound alone (no elastase)): > 100 nM | IC50 (HT29; with 10 nM elastase): 0.1 to 1 nM

CCCNC(=O)Nc1cccc(S(=O)(=O)Nc2cccc([C@@H](CC(=O)OCC[N+](C)(C)C)NC(=O)Nc3ccc(NC(=O)NCCOCCOCCOCCC(=O)N[C@@H](CC(=O)OCC[N+](C)(C)C)C(=O)N4CCC[C@H]4C(=O)N[C@H](C(=O)O[C@]4(CC)C(=O)OCc5c4cc4n(c5=O)Cc5c-4nc4ccccc4c5CC)C(C)C)cc3)c2)c1 [Compound C9]
IC50 (SUM149; compound alone (no elastase)): 10 to 100 nM | IC50 (SUM149; with 10 nM elastase): 0.1 to 1 nM | IC50 (NCI H292; compound alone (no elastase)): 10 to 100 nM | IC50 (NCI H292; with 10 nM elastase): 0.1 to 1 nM | IC50 (786-O; compound alone (no elastase)): 10 to 100 nM | IC50 (786-O; with 10 nM elastase): 1.1 to 10 nM | IC50 (HT29; compound alone (no elastase)): 10 to 100 nM | IC50 (HT29; with 10 nM elastase): 0.1 to 1 nM

CCCNC(=O)Nc1cccc(S(=O)(=O)Nc2cccc([C@@H](CC(=O)O)NC(=O)Nc3ccc(NC(=O)NCCN(C)CCN(C)CCN(C)CC(=O)NCCN(C)CCN(C)CCN(C)CC(=O)N[C@@H](CC(N)=O)C(=O)N4CCC[C@H]4C(=O)N[C@H](C(=O)O[C@]4(CC)C(=O)OCc5c4cc4n(c5=O)Cc5c-4nc4ccccc4c5CC)C(C)C)cc3)c2)c1 [Compound D1]
IC50 (SUM149; compound alone (no elastase)): 10 to 100 nM | IC50 (SUM149; with 10 nM elastase): 0.1 to 1 nM | IC50 (NCI H292; compound alone (no elastase)): 10 to 100 nM | IC50 (NCI H292; with 10 nM elastase): 1.1 to 10 nM | IC50 (786-O; compound alone (no elastase)): 10 to 100 nM | IC50 (786-O; with 10 nM elastase): 1.1 to 10 nM | IC50 (HT29; compound alone (no elastase)): 10 to 100 nM | IC50 (HT29; with 10 nM elastase): 1.1 to 10 nM

CCCNC(=O)Nc1cccc(S(=O)(=O)Nc2cccc([C@H](CC(=O)O)NC(=O)Nc3ccc(NC(=O)NCCN(C)CCN(C)CCN(C)CC(=O)NCCN(C)CCN(C)CCN(C)CC(=O)N[C@@H](CC(N)=O)C(=O)N4CCC[C@H]4C(=O)N[C@H](C(=O)O[C@]4(CC)C(=O)OCc5c4cc4n(c5=O)Cc5c-4nc4ccccc4c5CC)C(C)C)cc3)c2)c1 [Compound D2]
IC50 (SUM149; compound alone (no elastase)): 1.1 to 10 nM | IC50 (SUM149; with 10 nM elastase): 0.1 to 1 nM | IC50 (NCI H292; compound alone (no elastase)): 10 to 100 nM | IC50 (NCI H292; with 10 nM elastase): 0.1 to 1 nM | IC50 (786-O; compound alone (no elastase)): 10 to 100 nM | IC50 (786-O; with 10 nM elastase): 0.1 to 1 nM | IC50 (HT29; compound alone (no elastase)): 10 to 100 nM | IC50 (HT29; with 10 nM elastase): 0.1 to 1 nM

CCCNC(=O)Nc1cccc(S(=O)(=O)Nc2cccc([C@@H](CC(=O)O)NC(=O)Nc3ccc(NC(=O)NCCOCCOCCOCCC(=O)N[C@@H](CCCCNC(=O)CCCC(=O)NCCOCCOCCOCCC(=O)N[C@@H](CC(=O)O)C(=O)N4CCC[C@H]4C(=O)N[C@H](C(=O)O[C@]4(CC)C(=O)OCc5c4cc4n(c5=O)Cc5c-4nc4ccccc4c5CC)C(C)C)C(=O)NCCC(=O)O)cc3)c2)c1 [Compound E1]
AUC [1]: 10000 to 50000 ng·h/mL | clearance [1]: 0.5 to 5 mL/min/kg | half-life [1]: 5 to 10 h | Vd [1]: > 0.1 L/kg

CCCNC(=O)Nc1cccc(S(=O)(=O)Nc2cccc([C@@H](CC(=O)O)NC(=O)Nc3ccc(NC(=O)NCCOCCOCCOCCC(=O)N[C@@H](CCCCNC(=O)CCCC(=O)NCCOCCOCCOCCC(=O)N[C@@H](CC(=O)O)C(=O)N4CCC[C@H]4C(=O)N[C@H](C(=O)O[C@]4(CC)C(=O)OCc5c4cc4n(c5=O)Cc5c-4nc4ccccc4c5CC)C(C)C)C(=O)NCCCCCCCC(=O)O)cc3)c2)c1 [Compound E2]
AUC [1]: 50000 to 150000 ng·h/mL | clearance [1]: 0.5 to 5 mL/min/kg | half-life [1]: 5 to 10 h | Vd [1]: 0.01 to 0.1 L/kg

CCCNC(=O)Nc1cccc(S(=O)(=O)Nc2cccc([C@@H](CC(=O)O)NC(=O)Nc3ccc(NC(=O)NCCOCCOCCOCCC(=O)N[C@@H](CCCCNC(=O)CCCC(=O)N(C)CC(=O)N(C)CC(=O)N(C)CC(=O)N(C)CC(=O)O)C(=O)NCCOCCOCCOCCC(=O)N[C@@H](CC(=O)O)C(=O)N4CCC[C@H]4C(=O)N[C@H](C(=O)O[C@]4(CC)C(=O)OCc5c4cc4n(c5=O)Cc5c-4nc4ccccc4c5CC)C(C)C)cc3)c2)c1 [Compound E3] (I: {X1-CO-PEG3}-K[PEG3]DPV-{Camptothecin(7-Et)} / II: [Sar][Sar][Sar][Sar]-OH; linker I:1-II:N via Glutaryl)
AUC [1]: 10000 to 50000 ng·h/mL | clearance [1]: 0.5 to 5 mL/min/kg | half-life [1]: 5 to 10 h | Vd [1]: > 0.1 L/kg
